These results are taken from patent US20250018049A1, “COMPOUNDS FOR DEGRADING CYCLIN-DEPENDENT KINASE 2 VIA UBIQUITIN PROTEOSOME PATHWAY” (NIKANG THERAPEUTICS, INC., priority 2020, published 2025).

Each structure is given as a SMILES string.

For orientation: IC50 means the concentration at which inhibition is half-maximal.

Common to all, as to assay type: cell-based
Assay [1] deals with T1, CDK2 (Homo sapiens, UniProt P24941). Description: Phospho-Rb HTRF measurement in OVCAR3 cells (inhibition of CDK2). The settings on record: pRB(S807/811) assay, 24 h compound treatment. Also on record: High-Throughput Measurement of Cellular Endogenous CDK2; endogenous in cells; host or cells: OVCAR3.
Assay [2] concerns the target T1, CDK2. Description: NanoBRET CDK2 engagement assay. The following applies: OVCAR3 cells with stable CDK2-Luciferase vector, 24 hours treatment. Also on record: expressed in transfected cells. Summed up: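 OVCAR3 cells stably expressing CDK2-luciferase, in Opti-MEM with 1% FBS, treated 24 h at 37° C with compound from 3 μM in ½-log steps to 0.3 nM; NanoBRET tracer present for final 2 h. Donor/acceptor emission read; engagement normalized to DMSO as 100% signal, IC50 by curve fit.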
A general note: Bioluminescence resonance energy transfer reports proximity on the nanometre scale.

A further assay addresses T2, CDK1 (Homo sapiens, UniProt P06493).
T2 construct: endogenous in cells; host or cells: KYSE520
Description: Phospho-Rb HTRF measurement in KYSE520 cells (inhibition of CDK1). The settings on record: CDK2-dependent OVCAR3 vs CDK2-independent but CDK1-dependent KYSE520 cell line. As for the experimental part: Phosphorylation of RB protein at S780 and S807/811 were measured using HTRF phospho-RB cellular kits (Cat #64RBS780PEG and 64RBS807PEG) from Cisbio.
On Day 1, OVCAR3 or KYSE520 cells were seeded into 96-well tissue-culture treated plates at 20,000 cells/well in 200 μL and incubated overnight at 37° C. in CO2 atmosphere. On Day 2, the cells were treated with test compounds at concentrations from 0.3 to 10,000 nM using HP D300 digital dispenser. Twenty-four hours after compound treatment, cell culture media was removed by flicking the plate and tapping the plate against clean paper towel. Immediately 30 μL 1× lysis buffer was supplemented from the kit and the plate was incubated at room temperature on shaker for 30 min. After homogenization by pipetting up and down, 8 μL cell lysate from 96-well cell culture plate was transferred to 384-well small volume white detection plate. 2 μL premixed detection solution was added and the plate was covered with sealer. To prepare the detection solution, d2 conjugated-phospho-RB antibody and Eu-cryptate conjugated phosphor-RB antibody were diluted into detection buffer following manufacturer's instruction. Detection plates were incubated for 4 h at room temperature and read on ClarioStar (BMG Labtech) in TR-FRET mode (665 nM and 620 nM). The TR-FRET ratio (665 nM/620 nM) was plotted against the compound concentration and normalized to DMSO controls. Half maximal inhibition concentration (IC50) values are calculated with a four-parameter logistic fit using GraphPad Prism (version 8; La Jolla, CA).
Compound 5 was not tested in the KYSE520 cell line.
On the technique in general: Time-resolved FRET reads energy transfer from a long-lived donor to a nearby acceptor.

The target of assay [3] is T1, CDK2. The experiment in a line: CDK2 HTRF assay (cellular endogenous CDK2 level). Also noted: High-Throughput Measurement of Cellular Endogenous CDK2; endogenous in cells; host or cells: OVCAR3. The settings on record: OVCAR-3; OVCAR3 cells, 24 hours, 0.3 to 10,000 nM; read-out: max degradation of CDK2. An outline of the steps: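 OVCAR3 cells treated 24 h with compounds at 0.3–10,000 nM, then lysed and total CDK2 measured by HTRF using d2- and Eu-cryptate-labelled CDK2 antibodies (TR-FRET 665/620 nm ratio). Signal normalized to DMSO controls; DC50 from four-parameter logistic fit.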

T2 sequence (P06493 whole entry): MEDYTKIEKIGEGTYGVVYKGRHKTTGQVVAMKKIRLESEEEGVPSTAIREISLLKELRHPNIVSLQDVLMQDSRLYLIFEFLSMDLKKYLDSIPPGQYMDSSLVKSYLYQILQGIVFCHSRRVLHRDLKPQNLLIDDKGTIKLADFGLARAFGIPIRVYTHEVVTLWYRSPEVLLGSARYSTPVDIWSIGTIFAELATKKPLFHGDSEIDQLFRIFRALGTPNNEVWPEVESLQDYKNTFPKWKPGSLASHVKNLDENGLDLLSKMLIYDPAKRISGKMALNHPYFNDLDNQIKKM
T2 sequence (P14635 whole entry partner): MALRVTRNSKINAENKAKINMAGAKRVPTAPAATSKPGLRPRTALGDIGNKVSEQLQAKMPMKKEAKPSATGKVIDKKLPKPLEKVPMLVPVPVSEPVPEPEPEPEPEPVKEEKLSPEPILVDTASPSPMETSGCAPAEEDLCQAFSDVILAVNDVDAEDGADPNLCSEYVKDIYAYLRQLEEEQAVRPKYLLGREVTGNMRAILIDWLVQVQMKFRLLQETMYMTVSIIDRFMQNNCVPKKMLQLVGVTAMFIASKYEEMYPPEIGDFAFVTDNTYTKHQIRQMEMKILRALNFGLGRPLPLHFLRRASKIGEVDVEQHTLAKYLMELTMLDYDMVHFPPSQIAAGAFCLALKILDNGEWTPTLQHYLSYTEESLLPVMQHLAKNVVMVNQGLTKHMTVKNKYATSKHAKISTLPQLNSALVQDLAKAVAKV

On to `O=C1CCC(N2C(=O)c3cccc(NCCOCCOCCOCCNS(=O)(=O)N4CCC(Nc5ncc6ccc(=O)n(C7CCCC7)c6n5)CC4)c3C2=O)C(=O)N1` (centres unmarked) [Compound 21, 4-((8-cyclopentyl-7-oxo-7,8-dihydropyrido[2,3-d]pyrimidin-2-yl)amino)-N-(2-(2-(2-(2-((2-(2,6-dioxopiperidin-3-yl)-1,3-dioxoisoindolin-4-yl)amino)ethoxy)ethoxy)ethoxy)ethyl) piperidine-1-sulfonamide], for which the results for the IC50 against CDK2 [1] and on CDK2 [2] were 422 nM and 1170 nM, respectively. Also, the “times more potent pRb inhibition in OVCAR3 than in KYSE520” value (“times more potent pRb inhibition” below) on CDK1 is reported as approximately 11 times.

For `O=C1CCC(N2Cc3cc(N4CC(N5CCC(Oc6cccc(S(=O)(=O)N7CCC(Nc8ncc9ccc(=O)n(C%10CCCC%10)c9n8)CC7)c6)CC5)C4)ccc3C2=O)C(=O)N1` (centres unmarked) [Compound 28, 3-(5-(3-(4-(3-((4-((8-cyclopentyl-7-oxo-7,8-dihydropyrido[2,3-d]pyrimidin-2-yl)amino)-piperidin-1-yl)sulfonyl)phenoxy)piperidin-1-yl)-azetidin-1-yl)-1-oxoisoindolin-2-yl)piperidine-2,6-dione], on CDK2 [3], the Dmax fell in the range of 35 to 90%. For the same compound, the IC50 was determined as 52.9 nM against CDK2 [1] and 176 nM against CDK2 [2]. Moreover, at CDK1, the “times more potent pRb inhibition” value is recorded as approximately 21 times.

Consider `O=C1CCC(N2Cc3cc(N4CCC(CN5CCC(c6cccc(S(=O)(=O)N7CCC(Nc8ncc9ccc(=O)n(C%10CCCC%10)c9n8)CC7)c6)CC5)CC4)ccc3C2=O)C(=O)N1` (centres unmarked) [Compound 34, 3-(5-(4-((4-(3-((4-((8-cyclopentyl-7-oxo-7,8-dihydropyrido[2,3-d]pyrimidin-2-yl)amino)-piperidin-1-yl)sulfonyl)phenyl)piperidin-1-yl)-methyl)piperidin-1-yl)-1-oxoisoindolin-2-yl)-piperidine-2,6-dione], for which the Dmax on CDK2 [3] was 35 to 90%. Also, the results for the 50% inhibitory concentration (IC50) on CDK2 [1] and against CDK2 [2] were 50.3 nM and 86 nM, respectively. In addition, on CDK1, the “times more potent pRb inhibition” value was approximately 10.5 times.

Turning to `Cn1c(=O)n(C2CCC(=O)NC2=O)c2cccc(CNCCOc3cccc(S(=O)(=O)N4CCC(Nc5ncc6ccc(=O)n(C7CCCC7)c6n5)CC4)c3)c21` (centres unmarked) [Compound 41, 3-(4-(((2-(3-((4-((8-cyclopentyl-7-oxo-7,8-dihydropyrido[2,3-d]pyrimidin-2-yl)amino)-piperidin-1-yl)sulfonyl)phenoxy)ethyl)amino)-methyl)-3-methyl-2-oxo-2,3-dihydro-1H-benzo[d]imidazol-1-yl)piperidine-2,6-dione], the half-maximal inhibitory concentration (IC50) was 267 nM at CDK2 [1] and 214 nM against CDK2 [2]. Moreover, on CDK1, the “times more potent pRb inhibition” value was approximately 20.5 times.

For `O=C1CCC(N2Cc3cc(CNCCOc4cccc(S(=O)(=O)N5CCC(Nc6ncc7ccc(=O)n(C8CCCC8)c7n6)CC5)c4)ccc3C2=O)C(=O)N1` (centres unmarked) [Compound 68, 3-(5-(((2-(3-((4-((8-cyclopentyl-7-oxo-7,8-dihydropyrido[2,3-d]pyrimidin-2-yl)amino)-piperidin-1-yl)sulfonyl)phenoxy)ethyl)amino)-methyl)-1-oxoisoindolin-2-yl)piperidine-2,6-dione], the Dmax on CDK2 [3] is 35 to 90%. The results for the IC50 at CDK2 [1] and at CDK2 [2] were 29.4 nM and 197 nM, respectively.

As for `O=C1CCC(N2Cc3cc(N4CC(N5CCN(c6cccc(S(=O)(=O)N7CCC(Nc8ncc9ccc(=O)n(C%10CCCC%10)c9n8)CC7)c6)CC5)C4)ccc3C2=O)C(=O)N1` (centres unmarked) [Compound 69, 3-(5-(3-(4-(3-((4-((8-cyclopentyl-7-oxo-7,8-dihydropyrido[2,3-d]pyrimidin-2-yl)amino)-piperidin-1-yl)sulfonyl)phenyl)piperazin-1-yl)azetidin-1-yl)-1-oxoisoindolin-2-yl)piperidine-2,6-dione], the Dmax on CDK2 [3] was in the range of 35 to 90%. In addition, the figures for the half-inhibitory concentration (IC50) against CDK2 [1] and at CDK2 [2] were 31.8 nM and 149 nM, respectively.

Turning to `O=C1CCC(N2Cc3cc(N4CCN(C5CN(c6cccc(S(=O)(=O)N7CCC(Nc8ncc9ccc(=O)n(C%10CCCC%10)c9n8)CC7)c6)C5)CC4)ccc3C2=O)C(=O)N1` (centres unmarked) [Compound 70, 3-(5-(4-(1-(3-((4-((8-cyclopentyl-7-oxo-7,8-dihydropyrido[2,3-d]pyrimidin-2-yl)amino)-piperidin-1-yl)sulfonyl)phenyl)-azetidin-3-yl)piperazin-1-yl)-1-oxoisoindolin-2-yl)piperidine-2,6-dione], the Dmax on CDK2 [3] lay in the range of 35 to 90%. In addition, the values for the half-inhibitory concentration (IC50) against CDK2 [1] and against CDK2 [2] were 25.8 nM and 40.2 nM, respectively.

As for `O=C1CCC(N2C(=O)c3cccc(NCCOCCOCCOCCOCCNS(=O)(=O)N4CCC(Nc5ncc6ccc(=O)n(C7CCCC7)c6n5)CC4)c3C2=O)C(=O)N1` (centres unmarked) [compound 1, 4-((8-cyclopentyl-7-oxo-7,8-dihydro-pyrido[2,3-d]pyrimidin-2-yl)amino)-N-(14-((2-(2,6-dioxopiperidin-3-yl)-1,3-dioxoisoindolin-4-yl)amino)-3,6,9,12-tetraoxatetradecyl)piperidine-1-sulfonamide], the Dmax on CDK2 [3] was 35 to 90%. Further, the IC50 is 440 nM on CDK2 [1] and 403 nM at CDK2 [2].
